Test results taken from article PMC9095466 (Nature, 2022).
Several values for one entry are separate records, joined by “and”; a condition that tells them apart may be missing. Identical values can stand only once. Like-named read-outs stand apart in the source and are kept apart here.

How the values were obtained:
Recombinant human DESC1 = target: T1, Recombinant human DESC1 (Homo sapiens, UniProt Q9UL52); assay: Protease selectivity, Ki on recombinant protease; assay type: biochemical; details: single experiments N1-N3; Figure 1D; read-out: Individual Ki, Desc1
T1 construct: made in house
T1 sequence (Q9UL52 1-423): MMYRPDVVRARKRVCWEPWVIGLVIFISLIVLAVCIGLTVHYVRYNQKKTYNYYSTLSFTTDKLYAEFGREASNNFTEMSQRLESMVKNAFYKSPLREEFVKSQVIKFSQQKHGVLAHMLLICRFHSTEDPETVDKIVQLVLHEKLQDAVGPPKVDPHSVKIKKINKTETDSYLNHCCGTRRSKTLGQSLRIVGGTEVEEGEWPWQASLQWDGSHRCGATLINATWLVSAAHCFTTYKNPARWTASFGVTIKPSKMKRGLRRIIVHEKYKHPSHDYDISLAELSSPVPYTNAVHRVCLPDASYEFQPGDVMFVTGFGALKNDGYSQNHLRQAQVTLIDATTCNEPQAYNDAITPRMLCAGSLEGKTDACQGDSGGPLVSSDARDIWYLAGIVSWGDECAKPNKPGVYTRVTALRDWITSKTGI

human cathepsin L = target: T2, human cathepsin L (Homo sapiens, UniProt P07711); assay: Protease selectivity, Ki on protease; assay type: biochemical; details: single experiments N1-N4; Figure 1D; read-out: Individual Ki, Cathepsin L
T2 construct: purchased Bio-Techne
T2 sequence (P07711 114-333): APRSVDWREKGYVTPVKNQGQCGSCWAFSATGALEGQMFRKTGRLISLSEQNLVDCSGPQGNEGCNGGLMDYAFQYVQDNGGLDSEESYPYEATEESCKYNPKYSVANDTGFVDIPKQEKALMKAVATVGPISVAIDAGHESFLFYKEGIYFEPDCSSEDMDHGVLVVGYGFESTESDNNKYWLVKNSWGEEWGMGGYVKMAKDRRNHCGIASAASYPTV

[1] = Cytotoxicity CC50 in Calu-3 lung epithelial cells; assay type: cell-based, human; details: human, Calu-3 cells; for viability at 24 h, 3000 µM: Log [inhibitor] -2.52; for viability at 24 h, 1000 µM: Log [inhibitor] -3.00; for viability at 24 h, 300 µM: Log [inhibitor] -3.52; for viability at 24 h, 100 µM: Log [inhibitor] -4.00; for viability at 24 h, 30 µM: Log [inhibitor] -4.52; for viability at 24 h, 10 µM: Log [inhibitor] -5.00; for viability at 24 h, 3 µM: Log [inhibitor] -5.52; for viability at 24 h, 0.3 µM: Log [inhibitor] -6.52; for viability at 24 h, 0.03 µM: Log [inhibitor] -7.52; for viability at 24 h, 0.003 µM: Log [inhibitor] -8.52; for CC50 at 24 h: unit not given for CC50, read-out: CC50
Calu-3 cells = assay: Cytotoxicity CC50 in Calu-3 lung epithelial cells; assay type: cell-based, human; details: single replicates
[2] = tested on: SARS-CoV-2 lineage B strain (VIDO); assay: microbe, parasite or virus in culture; assay type: cell-based
human TMPRSS2 = human TMPRSS2 (Homo sapiens, UniProt O15393); assay: cell-based; details: for TMPRSS2 activity (%): Figure 1B, single experiments N1-N3; for inhibition at 0.01 µM: Vero C1008, 10 nM compound, 24 h, vs untreated/vehicle TMPRSS2-expressing Vero E6 cells, read-out: inhibition of TMPRSS2 activity (reduction of substrate proteolysis)
Sequence of human TMPRSS2 (O15393 whole entry): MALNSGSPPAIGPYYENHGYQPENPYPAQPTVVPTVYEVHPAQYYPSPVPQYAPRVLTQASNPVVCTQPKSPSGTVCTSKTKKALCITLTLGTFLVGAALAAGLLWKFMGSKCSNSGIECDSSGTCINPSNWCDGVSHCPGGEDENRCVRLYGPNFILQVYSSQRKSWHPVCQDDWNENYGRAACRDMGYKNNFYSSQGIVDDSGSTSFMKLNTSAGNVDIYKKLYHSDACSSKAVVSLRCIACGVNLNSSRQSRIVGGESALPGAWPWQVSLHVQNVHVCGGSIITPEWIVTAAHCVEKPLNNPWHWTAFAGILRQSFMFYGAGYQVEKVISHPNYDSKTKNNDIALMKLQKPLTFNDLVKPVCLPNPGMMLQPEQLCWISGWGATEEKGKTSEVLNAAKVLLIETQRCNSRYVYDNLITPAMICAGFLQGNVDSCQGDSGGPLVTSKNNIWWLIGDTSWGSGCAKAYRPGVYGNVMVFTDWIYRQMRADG

[3] = read-out: % of Viability, Average (n=2)
[4] = single replicates, read-out: % of Viability

Row | SMILES | Ki (Recombinant human DESC1) | Ki (human cathepsin L) | viability at 24 h, 3000 µM [1, 3] [%] | viability at 24 h, 300 µM [1, 3] [%] | viability at 24 h, 300 µM [1, 4] [%] | viability at 24 h, 100 µM [1, 3] [%] | viability at 24 h, 100 µM [1, 4] [%] | viability at 24 h, 30 µM [1, 3] [%] | viability at 24 h, 30 µM [1, 4] [%] | viability at 24 h, 10 µM [1, 3] [%] | viability at 24 h, 10 µM [1, 4] [%] | viability at 24 h, 3 µM [1, 3] [%] | viability at 24 h, 3 µM [1, 4] [%] | viability at 24 h, 0.3 µM [1, 3] [%] | viability at 24 h, 0.3 µM [1, 4] [%] | viability at 24 h, 0.03 µM [1, 3] [%] | viability at 24 h, 0.03 µM [1, 4] [%] | viability at 24 h, 0.003 µM [1, 3] [%] | viability at 24 h, 0.003 µM [1, 4] [%] | CC50 at 24 h [1] [µM] | other results
1 | CS(=O)(=O)N[C@@H](CCC(N)=O)C(=O)N[C@@H](Cc1ccccc1)C(=O)N[C@@H](CCCNC(=N)N)C(=O)c1nc2ccccc2s1 [Compound N-00385] | 0.0253 µM and 0.0169 µM and 0.0346 µM | 9.7 µM and 9.06 µM and 3.83 µM and 2.57 µM | – | – | – | – | – | – | – | – | – | – | – | – | – | – | – | – | – | – | –
2 | CS(=O)(=O)N[C@@H](CCC(N)=O)C(=O)N[C@@H](Cc1ccccc1)C(=O)N[C@@H](CCCNC(=N)N)C(=O)c1nc2ccccc2s1 [Compound N-385] | – | – | 52.5 | 92 | 90 | 91 | 94 | 87 | 90 | 101 | 103 | 110 | 110 | 111 | 113 | 110 | 116 | 117 | 119 | 3470 | viability at 24 h, 1000 µM [1, 3]: 80.5%; viability at 24 h, 1000 µM [1, 4]: 74%; % of Viability (Calu-3 cells; Log [inhibitor] -2.52): 42% and 63%; % of Viability (Calu-3 cells; Log [inhibitor] -4.00): 88%; % of Viability (Calu-3 cells; Log [inhibitor] -4.52): 84%; % of Viability (Calu-3 cells; Log [inhibitor] -5.00): 99%; % of Viability (Calu-3 cells; Log [inhibitor] -6.52): 109%; % of Viability (Calu-3 cells; Log [inhibitor] -7.52): 105%; % of Viability (Calu-3 cells; Log [inhibitor] -8.52): 115%
3 | CC(=O)N[C@@H](CCC(N)=O)C(=O)N[C@@H](Cc1ccccc1)C(=O)N[C@@H](CCCNC(=N)N)C(=O)c1nc2ccccc2s1 [Compound N-00386] | 0.0111 µM and 0.00728 µM and 0.00899 µM | 7.72 µM and 7.58 µM and 7.87 µM | – | – | – | – | – | – | – | – | – | – | – | – | – | – | – | – | – | – | –
4 | CC(=O)N[C@@H](CCC(N)=O)C(=O)N[C@@H](Cc1ccccc1)C(=O)N[C@@H](CCCNC(=N)N)C(=O)c1nc2ccccc2s1 [Compound N-386] | – | – | 46 | 82.5 | 79 | 87 | 86 | 87.5 | 85 | 87 | 86 | 95 | 95 | 100 | 98 | 104 | 101 | 102 | 102 | 1880 | viability at 24 h, 3000 µM [1, 4]: 44%; % of Viability (Calu-3 cells; Log [inhibitor] -2.52): 48%; % of Viability (Calu-3 cells; Log [inhibitor] -4.00): 88%; % of Viability (Calu-3 cells; Log [inhibitor] -4.52): 90%; % of Viability (Calu-3 cells; Log [inhibitor] -5.00): 88%; % of Viability (Calu-3 cells; Log [inhibitor] -7.52): 106%
5 | CC(=O)NC(CCC(N)=O)C(=O)NC(CC1CCCCC1)C(=O)NC(CCCNC(=N)N)C(=O)c1nc2ccccc2s1 (stereo not drawn) [Compound N-0676] | – | – | – | – | – | – | – | – | – | – | – | – | – | – | – | – | – | – | – | – | inhibition at 0.1 µM ([2]; Severe acute respiratory syndrome coronavirus 2, Calu-3, read-out: inhibition of SARS-CoV-2 infection): < 53%; TMPRSS2 activity (%) (human TMPRSS2): 95.6684% and 87.7074% and 100.707%; inhibition at 0.01 µM (human TMPRSS2): 8%
6 | N=C(N)NCCCC(NC(=O)C(Cc1ccccc1)NC(=O)C(CCC(N)=O)NC(=N)N)C(=O)c1nc2ccccc2s1 (stereo not drawn) [Compound N-1296] | – | – | – | – | – | – | – | – | – | – | – | – | – | – | – | – | – | – | – | – | Nucleocapsid ([2]; Figure 2a; two replicates; DMSO control about 91-94): 31.7311 and 81.7299; dsRNA ([2]; Figure 2a; two replicates; DMSO control about 93-95): 37.1641 and 78.8536; inhibition at 0.1 µM ([2]; Severe acute respiratory syndrome coronavirus 2, Calu-3; read-out: inhibition of SARS-CoV-2 infection): < 44%; TMPRSS2 activity (%) (human TMPRSS2): 93.2686% and 83.3862% and 77.4595%; inhibition at 0.01 µM (human TMPRSS2): 16%
